# Assay results taken from patent US20250214951A1, “3-PHENYLISOXAZOLE DERIVATIVE, AND PHARMACEUTICAL COMPOSITION FOR PREVENTING OR TREATING EYE DISEASE, CONTAINING SAME AS ACTIVE INGREDIENT” (VASTHERA CO., LTD., priority 2022, published 2025).
# Key:
# Assay type in all cases: cell-based, human
# [1] = test system: IL-1β, IL-6 and CXCL8 mRNA; assay: Inhibition of blue light-induced inflammatory gene expression (real-time PCR); settings: A2E and blue light; P<0.05; FIG. 5
# Method: ARPE-19 cell lines were seeded in 6-well plates at a concentration of 2×10^4 cells/well and cultured for 24 hours. The process of accumulating A2E in ARPE-19 cell lines, irradiating with blue light, and treating with example 17 compound of the present invention was performed in the same manner as in Experimental Example 5. After 24 hours of irradiating with blue light, total RNA was isolated from ARPE-19 cells using Trizol reagent (Invitrogen), and total RNA was quantified using Nanodrop (Nanodrop, Thermo Scientific). Thereafter, cDNA was synthesized using […] of total RNA, and the cDNA was amplified using the primers described in Table 5 below as a template and a real-time genetic cycler LC480 (Roche) (PCR conditions: denaturation −95° C., 10 seconds; primer binding −60° C., 10 seconds; and extension −72° C., 10 seconds).
# At this time, the PCR results for 18S were used as a control to correct the relative amount of genes measured in the ARPE-19 cell line, and the experimental results are shown in FIG. 5.
# [2] = test system: ARPE-19 cells; assay: Inhibition of retinal pigment epithelial cell death induced by A2E and blue light
# Method: A2E accumulated in human retinal pigment epithelial cells is known to induce cytotoxicity by blue light irradiation. Using a human retinal pigment epithelial cell line, the effect of the compound of the present invention on inhibiting cell death by blue light irradiation was measured.
# The ARPE-19 cell line was dispensed into a 6-well plate at a concentration of 2×10^4 cells/well and cultured for 24 hours. In order to induce A2E accumulation in the ARPE-19 cell line, cells were treated with A2E three times at a concentration of 25 μM at 48-hour intervals. Twenty-four hours after the last A2E treatment, cells were treated with example 17 compound of the present invention twice at 24-hour intervals at concentrations of 10, 25, and 50 μM, respectively. After an additional 24 hours of culture, blue light (BL, 430 nm, 7500 lux) was irradiated for 30 minutes and cultured for 24 hours. Cell death was observed under a microscope, and the number of living cells was measured using Image J (National Institutes of Health, USA) to calculate the quantitative cell viability.
# [3] = test system: A2E-BDP in ARPE-19 cells; assay: A2E-BDP removal ability by concentration of other example compounds; settings: indicated concentrations; FIG. 13
# Method: The human retinal pigment epithelial cell line (ARPE-19) used in the experiment was provided by ATCC (American Type Culture Collection). The ARPE-19 cell line was cultured in DMEM medium containing 10% FBS. After culture, the cells were dispensed into 96-well plates at a concentration of 4×10^3 cells/well and cultured for 24 hours. The ARPE-19 cell line was treated with A2E-fluorescent labeling substance (A2E-BDP) at a concentration of 10 μM for 24 hours to induce the accumulation of A2E-BDP in the ARPE-19 cell line.
# In order to evaluate the intracellular A2E removal ability of the compound of the present invention, an easily detectable A2E-fluorescent labeling substance (A2E-BDP) was used. The ARPE-19 cells prepared by the above method were treated with each test compound at a concentration of 50 μM once, and then cultured for 24 hours. The cells were lysed by adding a cell lysis buffer containing a protease inhibitor (50 mM Tris-chloride, pH 8.0, 150 mM sodium chloride, 1% NP-40, 1% sodium deoxycholate, 1% sodium dodecyl sulfate, and 2 mM ethylenediamine tetraacetic acid) to each 96-well. The prepared cell lysate was transferred to a white 96-well plate, and the fluorescence intensity was measured using a fluorescence microplate reader (VICTOR™ X3, Perkin Elmer, USA) (excitation 485 nm, emission 535 nm).
# The A2E-fluorescent labeling substance (A2E-BDP) removal ability was evaluated according to Experimental Example 1 (except that the test compound was treated at the indicated concentration).
# [4] = test system: LC3-II (autophagy flux); assay: Autophagy flux in ARPE-19 with or without bafilomycin A1; settings: 10, 25, 50 μM, 12 h, bafilomycin A1 2 nM 4 h, FIG. 7
# Method: Autophagy flux was measured by comparing the degree of change in LC3-II protein formation by treatment with example 17 compound of the present invention in the presence and absence of bafilomycin A1 (Abcam, Cambridge, United Kingdom) by Western blotting (Seranova E. et al. Autophagy: Methods and Protocols, Methods in Molecular Biology, vol. 1880, pp 389-428, 2019, https://doi.org/10.1007/978-1-4939-8873-0_26).
# The autophagy flux measurement in this experiment used saturating concentrations of bafilomycin A1, known as an autophagy inhibitor. […] Therefore, the effect of the example compound of the present invention on autophagy flux can be determined by examining the level of LC3-II following treatment with the example compound of the present invention in the presence or absence of saturating concentrations of bafilomycin A1.
# Specifically, in this experiment, ARPE-19 cell lines were seeded in 6-well plates at a concentration of 1×10^5 cells/well and cultured for 24 hours. […] The LC3-II level was measured by the Western immunoblotting method using a specific anti-LC3-II antibody (Cell Signaling Technology, MA, USA). Meanwhile, after treating with example 17 compound in the same manner as above under the condition of treating with bafilomycin A1 at a concentration of 2 nM for 4 hours, the amount of LC3-II was measured by the Western immunoblotting method. […]
smiles,measurement,setting,value
"C=CCOCc1cc(-c2cc(CC=C)ccc2OC)no1 [Example 17, 3-(5-allyl-2-methoxyphenyl)-5-((allyloxy)methyl)isoxazole]","expression of mRNA of inflammation-related genes (IL-1β, IL-6, and CXCL8)",[1],statistically significant reduction
same,cell death induced by A2E and blue light (microscope),"[2]; A2E 25 μM x3, compound 10, 25, 50 μM twice, blue light 430 nm, 7500 lux, 30 min, FIG. 3 upper",cell death was significantly inhibited
same,cell viability quantified using Image J (cell death by A2E and blue light),"[2]; same model, FIG. 3 lower",statistically significantly inhibited
same,A2E-BDP removal ability by concentration (amount of A2E),[3],concentration-dependent decrease in the amount of A2E
same,autophagy flux (difference in LC3-II with/without bafilomycin A1),[4],significantly increases autophagy flux
